Experimental data: publication PMC3645702, “Protein Tyrosine Nitration and Thiol Oxidation by Peroxynitrite—Strategies to Prevent These Oxidative Modifications” (International Journal of Molecular Sciences, 2013)

What was measured:
[1] = biological target: T1, alcohol dehydrogenase (ADH) (Saccharomyces cerevisiae, UniProt P00330); test: NADH formation at […] nm; assay type: biochemical
T1 construct: gene ADH1
T1 sequence (P00330 2-348): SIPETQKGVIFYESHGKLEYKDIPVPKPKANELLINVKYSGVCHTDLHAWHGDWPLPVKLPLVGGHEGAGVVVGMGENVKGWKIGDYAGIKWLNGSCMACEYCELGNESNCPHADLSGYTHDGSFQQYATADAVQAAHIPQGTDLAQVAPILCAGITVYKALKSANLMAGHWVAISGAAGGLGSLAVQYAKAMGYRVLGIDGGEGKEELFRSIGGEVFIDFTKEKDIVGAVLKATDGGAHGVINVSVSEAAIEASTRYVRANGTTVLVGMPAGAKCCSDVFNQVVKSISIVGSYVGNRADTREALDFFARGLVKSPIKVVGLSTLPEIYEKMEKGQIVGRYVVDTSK

[2] = biological target: T2, human prostacyclin synthase (PGIS), microsomal, partially purified (Homo sapiens, UniProt Q16647); test: 3-nitrotyrosine formation, Western blot and HPLC after pronase; assay type: biochemical
T2 construct: gene PTGIS; overexpressed in Sf21 insect cells
T2 sequence (Q16647 1-500): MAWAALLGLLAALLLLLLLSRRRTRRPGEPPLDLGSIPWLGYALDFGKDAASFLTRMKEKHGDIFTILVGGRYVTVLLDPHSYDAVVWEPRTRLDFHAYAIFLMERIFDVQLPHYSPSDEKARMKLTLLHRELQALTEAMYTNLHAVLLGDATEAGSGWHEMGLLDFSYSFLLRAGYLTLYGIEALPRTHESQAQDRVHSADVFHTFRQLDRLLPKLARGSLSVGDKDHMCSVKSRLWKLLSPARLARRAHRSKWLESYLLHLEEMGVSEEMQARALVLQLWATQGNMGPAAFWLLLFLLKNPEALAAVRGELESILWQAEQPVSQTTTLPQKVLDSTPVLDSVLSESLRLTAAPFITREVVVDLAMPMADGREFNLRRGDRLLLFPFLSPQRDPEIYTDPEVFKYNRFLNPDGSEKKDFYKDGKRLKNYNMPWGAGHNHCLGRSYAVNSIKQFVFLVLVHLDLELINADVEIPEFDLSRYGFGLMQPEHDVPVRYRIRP
Source text: 3-nitrotyrosine formation, Western blot and HPLC after pronase on human prostacyclin synthase (PGIS), microsomal, partially purified | peroxynitrite-dependent nitration of an over-expressed and partially purified human prostacyclin synthase

SMILES | inhibition at 50 µM [1] [%] | EC50 [2] [µM]
S=c1cc[nH]c(=S)[nH]1 [2,6-Dithiopyrimidine] | 20 | –
S=c1[nH]c(=S)c2[nH]cnc2[nH]1 [2,6-Dithiopurine] | 20 | –
O=NOO [peroxynitrite] | – | 5
